Experimental data as given in patent publication US20200231562A1, “NOVEL MACROLIDE ANTIBIOTICS” (HELMHOLTZ-ZENTRUM FÜR INFEKTIONSFORSCHUNG GMBH, priority 2014, published 2020).
≈ marks a conversion by molar mass, not a printed value.

How the values were obtained:
[1] = test system: Staphylococcus aureus SG511; test: Agar diffusion assay; assay type: cell-based; conditions: 50 μL of 0.5 mg in 1 mL methanol per 7 mm hole, n.a. = no activity observed, read-out: diameter of inhibition zone
Protocol: (§1) Antimicrobial activities of the gulmirecins were determined in a primary screen against Bacillus subtilis ATCC 6633, Staphylococcus aureus SG511, Staphylococcus auricularis DSM 20609, Mycobacterium vaccae IMET 10670, Pseudomonas aeruginosa K799/61, Escherichia coli SG458, Sporobolomyces salmonicolor SBUG 549, Candida albicans ATCC14053 and Penicillium notatum JP 36. To this end, holes with 7 mm diameter were aseptically punched in the respective agar medium. Subsequently, the agar plates were inoculated with the test organisms. 0.5 mg of every test compound was dissolved in 1 mL of methanol, and 50 μL of this solution was transferred to a single hole. Ciprofloxacin and amphotericin B served as positive controls. After evaporation of the solvent, the agar plates were incubated depending on the growth conditions of the test organisms. […] The test results are shown in Table 6 below, wherein the given values represent the diameters of the respective inhibition zone in the agar diffusion assay.

[2] = test system: Staphylococcus auricularis DSM 20609; test: Agar diffusion assay; assay type: cell-based; conditions: DSM20609, 50 μL of 0.5 mg in 1 mL methanol per 7 mm hole, n.a. = no activity observed, read-out: diameter of inhibition zone
Protocol: as §1

[3] = test system: transformed lung epithelial A-549 cells; test: MTT assay, cytotoxic activity; assay type: cell-based, human; conditions: incubation 24 or 48 hours
Protocol: (§2) The cytotoxic activity of gulmirecin A (3) and gulmirecin B (4) against human cells was evaluated in the well-established MTT assay using primary monocytes from human peripheral blood as well as transformed lung epithelial cell A-549 cell and leukemic Mono Mac 6 cells. Furthermore, 3 and 4 were tested against K-562, HUVEC, and HeLa cells.
(§3) The human monocytic cell line Mono Mac 6 was cultured in RPMI 1640 medium supplemented with FCS (10%, v/v), penicillin (100 U/ml), streptomycin (100 μg/ml), insulin (10 μg/ml), oxaloacetic acid (1 mM), sodium pyruvate (1 mM), and 1× non-essential amino acids at 37° C. and 5% CO2. A-549 cells (DSM ACC-107) were cultured in DMEM high glucose (4.5 g/l) medium supplemented with FCS (10% v/v), penicillin (100 U/ml) and streptomycin (100 μg/ml) at 37° C. in a 5% CO2 incubator. K-562 (DSM ACC 10) and HeLa cells (DSM ACC 57) were grown in RPMI 1640, whereas cells of HUVEC (ATCC CRL-1730) were cultured in DMEM medium. The respective media were supplemented with ultraglutamine 1 (10 ml/l), gentamicin sulfate (500 μl/l), and FCS (10% v/v).
(§4) Cells (3×10^5 Mono Mac 6, 1×10^5 A-549 cells, or 2×10^6 monocytes per well) were seeded in a 96-well plate in the respective medium (100 μl/well). Monocytes were allowed to adhere for 1.5 hours (37° C., 5% CO2) prior to treatment. Test compounds (0.3% DMSO as vehicle) were added to each well and samples were incubated for 48 hrs. Then, 20 μl of thiazolyl blue tetrazolium bromide (MTT, 5 mg/ml PBS) were added, and the incubation was continued at 37° C., 5% CO2 until blue staining of the vehicle control. Formazan formation was stopped by adding 100 μl of lysis buffer (SDS, 10%, w/v in 20 mM HCl) and samples were shaken overnight. Absorbance of each well was measured at 570 nm in a Multiskan™ microplate spectrophotometer (Thermo Scientific).

[4] = test system: leukemic Mono Mac 6 cells; test: MTT assay, cytotoxic activity; assay type: cell-based, human; conditions: incubation 24 or 48 hours
Protocol: as §2, §3
as §4, with “Test compounds (0.3% DMSO as vehicle) were added to each well and samples were incubated for 48 hrs.” left out

HUVEC cells = test: Antiproliferative effect (methylene blue staining); assay type: cell-based, human; conditions: at a concentration of 100 μM
Protocol: as §3
(§5) The test substances were dissolved in methanol before being diluted in DMEM. The adherent cells were harvested at the logarithmic growth phase after soft trypsinization using 0.25% trypsin in PBS containing 0.02% EDTA. For each experiment, approximately 10,000 cells were seeded with 0.1 ml culture medium per well of the 96-well microplates. […] In case of K-562 cells, the number of viable cells in every well was determined using the CellTiter-Blue1 assay. […] The optical densities were measured at 660 nm in a SUNRISE microplate reader (TECAN).

HeLa cells = test: Cytotoxic effect (methylene blue staining); assay type: cell-based, human; conditions: at a concentration of 100 μM
Protocol: as §3, §5

[5] = test system: Mycobacterium sp. DSM 43270; test: MIC by microbroth dilution; assay type: cell-based; conditions: 16 h, 30° C., n.i. = no inhibition up to 67 μg/ml
Protocol: (§6) Bacterial strains. Bacterial wildtype strains used in susceptibility assays were either part of HZI's strain collection or purchased from the German Collection of Microorgansims and Cell Cultures (Deutsche Sammlung von Mikroorganismen und Zellkulturen, DSMZ).
(§7) Minimum inhibitory concentration (MIC) was determined by microbroth dilution. In brief, overnight cultures of bacteria (EBS medium) were diluted to OD600 0.01. Disciformycin A (1) or B (2) dissolved in DMSO was added directly to the cultures in 96-well plates (Sarstedt, flat bottom) in duplicate and the compound was tested in serial dilution. […] After 16 h incubation at 900 rpm and 30° C. on a microplate shaker (Titramax, Heidolph) absorbance at 600 nm was measured using a microplate reader (POLARstar Omega, BMG Labtech). MIC values were determined by sigmoidal curve fitting.

[6] = test system: Nocardioides simplex DSM 20130; test: MIC by microbroth dilution; assay type: cell-based; conditions: Pimelobacter simplex, DSM20130, 16 h, 30° C., n.i. = no inhibition up to 67 μg/ml, read-out: MIC
Protocol: as §6, §7

C/C=C(/C)[C@H]1C/C=C(\C)[C@@H](O[C@H]2O[C@H](CO)[C@@H](O)[C@@H]2O)[C@H](O)C(=O)CC[C@H](C)C(=O)O1 [Compound 4, gulmirecin B]
zone of inhibition at 25 µg/hole [1]: 17 mm | zone of inhibition at 25 µg/hole [2]: 19 mm | cell viability / cytotoxicity (MTT) [3]: no reduction in cell viability at the concentrations required for antibacterial activity | cell viability / cytotoxicity (MTT) [4]: no reduction in cell viability at the concentrations required for antibacterial activity | inhibition of proliferation (HUVEC cells): did not inhibit | inhibition of proliferation (HeLa cells): did not inhibit

C/C=C(/C)[C@H]1C/C=C(\C)[C@@H](O[C@H]2O[C@H](CO)[C@@H](O)[C@@H]2O)[C@H](OC(=O)CC(C)C)C(=O)C[C@@H](O)[C@H](C)C(=O)O1 [Compound 3, gulmirecin A]
zone of inhibition at 25 µg/hole [1]: 29 mm | zone of inhibition at 25 µg/hole [2]: 31 mm | cell viability / cytotoxicity (MTT) [3]: no reduction in cell viability at the concentrations required for antibacterial activity | cell viability / cytotoxicity (MTT) [4]: no reduction in cell viability at the concentrations required for antibacterial activity | inhibition of proliferation (HUVEC cells): did not inhibit | inhibition of proliferation (HeLa cells): did not inhibit

C/C=C(/C)[C@H]1C/C=C(\C)[C@@H](O[C@H]2O[C@H](CO)[C@@H](O)[C@@H]2O)[C@H](OC(=O)CC(C)C)C(=O)C/C=C(/C)C(=O)O1 [Compound 1, disciformycin A]
MIC [5]: n.i. | MIC [6]: 33.3 mg/L (≈ 63.5 µM)
